By MIC is commonly meant the least concentration at which growth counts as inhibited.

The structures appear in SMILES notation. Values after ≈ are worked out from the molar mass of the structure shown. Active and inactive are the calls of the source. The calls are words filed in the database; no cut-off is given here. *1 amine or outer side, *2 acyl side, *3 side chain or, on linkers, in order; H or OH if unused. Where a SMILES comes first, the peptide text is derived from it. Bridges are numbered along the chain shown (N, C = ends). [ ]: non-standard residue; d: D form. The star is where a group is joined. Phe(3R-OH) = O=C([C@@H](N[*:1])[C@H](O[*:3])c1ccccc1)[*:2]; NMeTrp(4-OMe) = CN[C@@H](Cc1c[nH]c2cccc(OC)c12)C(=O)O; NMeW = CN[C@@H](Cc1c[nH]c2ccccc12)C(=O)O; NMe2Val = CC(C)[C@@H](C(=O)*)N(C)C; NMeT = CN[C@H](C(=O)O)[C@@H](C)O; NMeL = CN[C@@H](CC(C)C)C(=O)O; NMeDap = CN[C@@H](CN)C(=O)O; NMeV = CN[C@H](C(=O)O)C(C)C; NMeS = CN[C@@H](CO)C(=O)O; Sar = CNCC(=O)O

The subject of assay [1] is Mycobacterium tuberculosis. Description: Antimycobacterial activity against Mycobacterium tuberculosis mc2 6230 measured after 7 days. The conditions noted are these: mc2 6230, 168 h, time 7 day. The format is functional.
In assay [2] the test system is Mycobacterium tuberculosis. In words: Antimycobacterial activity against Mycobacterium tuberculosis mc2 6230 assessed as log reduction in bacteria measured up to 21 days by Time kill assay. The format is functional, organism-based. The conditions noted are these: time day <=21.

In assay [1], `CN[C@H](C(=O)N[C@H](C(=O)N[C@@H]1C(=O)N(C)[C@@H]([C@@H](C)O)C(=O)N[C@@H](C(C)C)C(=O)N(C)[C@@H](CC(C)C)C(=O)N[C@@H](C(C)C)C(=O)N(C)[C@@H](C(C)C)C(=O)N(C)[C@@H](Cc2c[nH]c3ccccc23)C(=O)N[C@@H](C(C)C)C(=O)N[C@@H](Cc2ccccc2)C(=O)N[C@@H](C(C)C)C(=O)O[C@@H]1C)C(C)C)C(C)C` (H-[NMeV]VT[NMeT]V[NMeL]V[NMeV][NMeW]VFV; ester 3-C) returned an MIC of 0.25 µM (≈ 0.353 µg/mL). For the same compound, the outcome in assay [2] was Active.

As for `CN[C@H](C(=O)N[C@H](C(=O)N[C@@H]1C(=O)N(C)[C@@H]([C@@H](C)O)C(=O)N[C@@H](C(C)C)C(=O)N(C)[C@@H](CC(C)C)C(=O)N[C@@H](C(C)C)C(=O)N2CCC[C@H]2C(=O)N(C)[C@@H](Cc2c[nH]c3ccccc23)C(=O)N[C@@H](C(C)C)C(=O)N[C@@H](Cc2ccccc2)C(=O)N[C@@H](C(C)C)C(=O)O[C@@H]1C)C(C)C)C(C)C` (H-[NMeV]VT[NMeT]V[NMeL]VP[NMeW]VFV; ester 3-C), the MIC in assay [1] was determined as 8 µM (≈ 11.2 µg/mL). In other words, the single-digit micromolar range.

Compound `CN[C@H](C(=O)N[C@H](C(=O)N[C@@H]1C(=O)N(C)[C@@H]([C@@H](C)O)C(=O)N[C@@H](C(C)C)C(=O)N(C)[C@@H](CC(C)C)C(=O)N[C@@H](C(C)C)C(=O)N(C)[C@@H](CC(C)C)C(=O)N(C)[C@@H](Cc2c[nH]c3ccccc23)C(=O)N[C@@H](C(C)C)C(=O)N[C@@H](Cc2ccccc2)C(=O)N[C@@H](C(C)C)C(=O)O[C@@H]1C)C(C)C)C(C)C` (H-[NMeV]VT[NMeT]V[NMeL]V[NMeL][NMeW]VFV; ester 3-C) registered an MIC in assay [1] of 0.25 µM (≈ 0.357 µg/mL). The outcome in assay [2] was Active. `CN[C@H](C(=O)N[C@H](C(=O)N[C@@H]1C(=O)N(C)[C@@H]([C@@H](C)O)C(=O)N[C@@H](C(C)C)C(=O)N(C)[C@@H](CC(C)C)C(=O)N[C@@H](C(C)C)C(=O)N(C)[C@@H](Cc2c[nH]c3ccccc23)C(=O)N(C)[C@@H](Cc2c[nH]c3ccccc23)C(=O)N[C@@H](C(C)C)C(=O)N[C@@H](Cc2ccccc2)C(=O)N[C@@H](C(C)C)C(=O)O[C@@H]1C)C(C)C)C(C)C` (H-[NMeV]VT[NMeT]V[NMeL]V[NMeW][NMeW]VFV; ester 3-C): the MIC in assay [1] is 0.5 µM (≈ 0.75 µg/mL). In other words, the sub-micromolar range. On to `CN[C@H](C(=O)N[C@H](C(=O)N[C@@H]1C(=O)N(C)[C@@H]([C@@H](C)O)C(=O)N[C@@H](C(C)C)C(=O)N(C)[C@@H](CC(C)C)C(=O)N[C@@H](C(C)C)C(=O)N(C)CC(=O)N(C)[C@@H](Cc2c[nH]c3ccccc23)C(=O)N[C@@H](C(C)C)C(=O)N[C@@H](Cc2ccccc2)C(=O)N[C@@H](C(C)C)C(=O)O[C@@H]1C)C(C)C)C(C)C` (H-[NMeV]VT[NMeT]V[NMeL]V[Sar][NMeW]VFV; ester 3-C), for which the MIC in assay [1] was found to be 8 µM (≈ 11 µg/mL). In the case of `CN[C@H](C(=O)N[C@H](C(=O)N[C@@H]1C(=O)N(C)[C@@H]([C@@H](C)O)C(=O)N[C@@H](C(C)C)C(=O)N(C)[C@@H](CC(C)C)C(=O)N[C@@H](C(C)C)C(=O)N(C)[C@@H](CN)C(=O)N(C)[C@@H](Cc2c[nH]c3ccccc23)C(=O)N[C@@H](C(C)C)C(=O)N[C@@H](Cc2ccccc2)C(=O)N[C@@H](C(C)C)C(=O)O[C@@H]1C)C(C)C)C(C)C` (H-[NMeV]VT[NMeT]V[NMeL]V[NMeDap][NMeW]VFV; ester 3-C), inhibition of growth in assay [1] (MIC) required 2 µM (≈ 2.8 µg/mL). This MIC is about 4-fold lower than that of the compound before. Still for that read-out and setting: to `CN[C@H](C(=O)N[C@H](C(=O)N[C@@H]1C(=O)N(C)[C@@H]([C@@H](C)O)C(=O)N[C@@H](C(C)C)C(=O)N(C)[C@@H](CC(C)C)C(=O)N[C@@H](C(C)C)C(=O)N(C)[C@@H](CO)C(=O)N(C)[C@@H](Cc2c[nH]c3ccccc23)C(=O)N[C@@H](C(C)C)C(=O)N[C@@H](Cc2ccccc2)C(=O)N[C@@H](C(C)C)C(=O)O[C@@H]1C)C(C)C)C(C)C` (H-[NMeV]VT[NMeT]V[NMeL]V[NMeS][NMeW]VFV; ester 3-C) belongs 2 µM (≈ 2.8 µg/mL); to `COc1cccc2[nH]cc(C[C@H]3C(=O)N[C@@H](C(C)C)C(=O)N[C@@H]([C@H](O)c4ccccc4)C(=O)N[C@@H](C(C)C)C(=O)O[C@H](C)[C@H](NC(=O)[C@@H](NC(=O)[C@H](C(C)C)N(C)C)C(C)C)C(=O)N(C)[C@@H]([C@@H](C)O)C(=O)N[C@@H](C(C)C)C(=O)N(C)[C@@H](CC(C)C)C(=O)N[C@@H](C(C)C)C(=O)N(C)[C@@H](C(C)C)C(=O)N3C)c12` (NMe2Val-VT[NMeT]V[NMeL]V[NMeV][NMeTrp(4-OMe)]V[Phe(3R-OH)]V; ester 2-C), 0.5 µM (≈ 0.736 µg/mL).

For the origin of these results see ChEMBL document CHEMBL5046300, “Potent Bactericidal Antimycobacterials Targeting the Chaperone ClpC1 Based on the Depsipeptide Natural Products Ecumicin and Ohmyungsamycin A” (2022).
